Test results: publication PMC7044277 (Nature Communications, 2020)
Several values for one entry are separate records, joined by “and”; a condition that tells them apart may be missing. Equal values may be shown once.

How the values were obtained:
Format in all cases: cell-based
320 non-olfactory GPCRs [1] = biological target: T1, 320 non-olfactory GPCRs (Homo sapiens, UniProt Q99705); details: receptor MCHR1R; replicate values, Fig_4g
T1 construct: expressed in transfected cells; host or cells: HTLA cells
T1 sequence (Q99705 whole entry): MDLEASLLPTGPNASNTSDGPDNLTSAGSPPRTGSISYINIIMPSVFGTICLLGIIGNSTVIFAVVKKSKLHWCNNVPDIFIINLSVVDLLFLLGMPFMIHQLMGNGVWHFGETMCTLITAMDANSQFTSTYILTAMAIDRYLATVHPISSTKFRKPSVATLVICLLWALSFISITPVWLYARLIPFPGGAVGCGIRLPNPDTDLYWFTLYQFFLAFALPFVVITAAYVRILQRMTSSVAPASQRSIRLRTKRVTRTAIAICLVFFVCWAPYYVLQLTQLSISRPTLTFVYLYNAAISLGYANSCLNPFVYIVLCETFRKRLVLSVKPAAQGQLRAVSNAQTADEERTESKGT

320 non-olfactory GPCRs [2] = biological target: 320 non-olfactory GPCRs (Homo sapiens, UniProt P25025)
Sequence of 320 non-olfactory GPCRs (Homo sapiens, UniProt P25025) (P25025 whole entry): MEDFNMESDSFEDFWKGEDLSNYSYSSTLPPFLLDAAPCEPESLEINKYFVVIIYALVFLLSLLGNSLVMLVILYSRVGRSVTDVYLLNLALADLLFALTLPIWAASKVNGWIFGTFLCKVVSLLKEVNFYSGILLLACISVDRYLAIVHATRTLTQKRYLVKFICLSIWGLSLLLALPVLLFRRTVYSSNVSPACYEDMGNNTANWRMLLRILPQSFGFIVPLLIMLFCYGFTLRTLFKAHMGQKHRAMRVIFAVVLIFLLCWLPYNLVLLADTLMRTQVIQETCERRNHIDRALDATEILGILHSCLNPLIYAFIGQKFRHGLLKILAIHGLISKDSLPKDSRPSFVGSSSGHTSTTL

320 non-olfactory GPCRs [3] = biological target: 320 non-olfactory GPCRs (Homo sapiens, UniProt P43220)
Sequence of 320 non-olfactory GPCRs (Homo sapiens, UniProt P43220) (P43220 24-463): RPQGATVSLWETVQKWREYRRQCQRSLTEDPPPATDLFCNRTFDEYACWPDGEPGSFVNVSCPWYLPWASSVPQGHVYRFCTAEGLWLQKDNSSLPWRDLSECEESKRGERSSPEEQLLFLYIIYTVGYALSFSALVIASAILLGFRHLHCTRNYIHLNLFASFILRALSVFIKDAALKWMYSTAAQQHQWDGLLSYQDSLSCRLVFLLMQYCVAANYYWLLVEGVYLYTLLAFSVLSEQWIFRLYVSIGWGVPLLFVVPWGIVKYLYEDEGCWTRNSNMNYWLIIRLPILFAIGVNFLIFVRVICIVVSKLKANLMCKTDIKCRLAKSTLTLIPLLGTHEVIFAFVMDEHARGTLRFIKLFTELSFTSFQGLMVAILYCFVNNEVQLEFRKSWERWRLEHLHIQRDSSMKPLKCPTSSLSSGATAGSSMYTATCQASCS

320 non-olfactory GPCRs [4] = biological target: T2, 320 non-olfactory GPCRs (Homo sapiens, UniProt Q86SM5); details: receptor MRGPRG; replicate values, Fig_4g
T2 construct: expressed in transfected cells; host or cells: HTLA cells
T2 sequence (Q86SM5 whole entry): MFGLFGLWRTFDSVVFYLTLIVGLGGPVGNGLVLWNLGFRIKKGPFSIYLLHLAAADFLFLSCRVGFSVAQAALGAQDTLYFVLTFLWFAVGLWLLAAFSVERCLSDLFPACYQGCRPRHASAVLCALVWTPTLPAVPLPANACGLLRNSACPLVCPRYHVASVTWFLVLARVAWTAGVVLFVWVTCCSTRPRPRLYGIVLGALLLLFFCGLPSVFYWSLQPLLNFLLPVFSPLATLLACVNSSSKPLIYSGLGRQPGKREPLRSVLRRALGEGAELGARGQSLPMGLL
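Throughout, for Fold of Basal: compound tested at 1 µM final concentration.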
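Throughout, for GPCRome agonism screen response: fold over basal response of each receptor without drug.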

CCOc1cccc2cc(C(C)NCC3(O)CCCCC3)oc12 (stereo not shown) [O4LE6]
GPCRome agonism screen response (320 non-olfactory GPCRs [1]): 0.7534 and 1.295 and 1.833 and 1.448 | Fold of Basal (320 non-olfactory GPCRs [2]): 1.166 and 1.131 and 0.9959 and 1.015 | Fold of Basal (320 non-olfactory GPCRs [3]): 0.6919 and 1.003 and 1.157 and 1.2674 | GPCRome agonism screen response (320 non-olfactory GPCRs [4]): 0.767 and 0.7489 and 0.544 and 0.824
